Measurements from the SangsterLogP compilation.

How the values were obtained:
[1] = from Ganellin, C.; Brown, T.; Griffiths, R.; Jones, M.; Mitchell, C.; Rana, K.; Saunders, D.; Smith, I.; Sore, E.; Wilks, J.; Young, R. (1991). Use of partition coefficients as a model for brain …
[2] = not given; remark: listed apart in the source
[3] = method code SF-RC, from DOI: 10.1016/j.nucmedbio.2007.12.005, PMID: 18355688; conditions: pH 7.4
[4] = method code SF-AS, from DOI: 10.1021/jm00234a001, PMID: 1003419
[5] = method code SF-AS, from DOI: 10.1002/ardp.19853180604, PMID: 4026543; conditions: pH 7.4
[6] = not given; remark: listed apart in the source
[7] = not given; remark: listed apart in the source
[8] = method code SF, from DOI: 10.1021/jm00294a005, PMID: 5000561
[9] = not given; remark: listed apart in the source
[10] = not given; remark: listed apart in the source
[11] = method code SF-HPLC, from DOI: 10.1016/j.bmc.2015.09.009, PMID: 26385444
[12] = method code SF-AS, from DOI: 10.1248/bpb1978.4.759, PMID: 7320829
[13] = method code SF-HPLC, from DOI: 10.2174/1871523013666141114203105, PMID: 25403255; conditions: pH 7.4
[14] = method code SF-AS, from DOI: 10.1016/0378-5173(85)90003-1
[15] = method code SF-RC, from DOI: 10.1016/j.nucmedbio.2014.05.001, PMID: 24969632; conditions: pH 7.4
[16] = method code SF-HPLC, from DOI: 10.1016/s0024-3205(00)00615-9, PMID: 10901288; conditions: pH 5.0
[17] = method code SF-AS, from DOI: 10.3109/03639048709068705
[18] = method code SF-HPLC, from DOI: 10.1016/s0223-5234(98)80037-8; conditions: pH 7.4
[19] = method code SF-HPLC, from DOI: 10.1248/cpb.47.1081, PMID: 10478463; conditions: pH 6.5
[20] = not given; remark: listed apart in the source
[21] = method code SF-AS, from DOI: 10.1016/s0020-1693(00)85781-3
[22] = method code SF-HPLC, from DOI: 10.1016/0731-7085(91)80215-u, PMID: 1821151; conditions: pH 7.4

Work on Cc1cccc2c1Oc1ccccc1C2NC(=O)CN(C)C (configuration not stated) yielded a logP of 2.7.
CN(C)Cc1ccc(CSCCNc2nc(=O)c(Cc3ccc4ccccc4c3)c[nH]2)o1 gave a logP [1] of 4.57.
COc1ccc(C(=O)C2c3cccc(O)c3C(=O)c3c(O)cccc32)cc1OC gave a logP [2] of 3.45.
CN(C(=O)Cc1c(-c2ccc(Cl)cc2)nc2c(Cl)cc(Cl)cn12)c1ccccc1 showed a logD [3] of 2.2.
In the case of OCC1OC(Oc2cc(OC3OC(CO)C(O)C(O)C3O)c(I)cc2I)C(O)C(O)C1O (configuration not stated), the logP [4] is reported as -0.25.
Work on CNC(=O)c1c(I)c(O[C@@H]2O[C@H](CO)[C@@H](O)[C@H](O)[C@H]2O)c(I)c(O[C@@H]2O[C@H](CO)[C@@H](O)[C@H](O)[C@H]2O)c1I yielded a logP [4] of -1.57.
Compound COc1ccc(C(=O)C2c3cccc(O)c3C(=O)c3c(O)cccc32)cc1 has a logP [2] of 3.74.
Compound Cc1cccc2c1Oc1cc(Cl)ccc1C2NC(=O)CN(C)C (configuration not stated) has a logP of 3.44.
With COc1ccc(N2C(=O)CSC2=Nn2c(C)nc3ccccc3c2=O)cc1 the logD [5] was -1.23.
With COc1cc(C=Cc2ccccn2)ccc1C=Cc1ccccn1 the logP [6] was 4.25.
For O=C1C(CCS(=O)c2ccccc2)C(=O)N(c2ccccc2)N1c1ccccc1 (configuration not stated), the logP [7] was 3.56.
In the case of CCCC1CC(C(=O)NC(C(C)O)C2OC(SC)C(O)C(O)C2O)N(C)C1 (configuration not stated), the logP [8] is reported as 0.2.
In the case of OC(CCCN1CCC(C(O)(c2ccccc2)c2ccccc2)CC1)c1ccccc1 (configuration not stated), the logP [9] is reported as 3.9.
With CCCCCCCCCCCCCCCCCCCc1cc(O)cc(O)c1 the logP [10] was 10.9.
For CC1=C(C(=O)Nc2nc3ccccc3s2)C(c2ccc(F)cc2)NC(=S)N1 (configuration not stated), the logP [11] was 2.18.
For CN1CCC(=C2c3ccccc3CCc3cccnc32)CC1, the logP [9] was 3.59.
Work on Clc1ccc2c(c1)CCc1cccnc1C2=C1CCNCC1 yielded a logP [9] of 2.56.
Work on c1cc(CN2CCCCC2)cc(OCCCNc2nc3ccccc3s2)c1 yielded a logP [1] of 5.41.
For O=C1NC(=O)C(c2ccccc2)(c2ccccc2)N1S(=O)(=O)c1ccc(O)cc1, the logD ([12]; pH 7.0) was 1.62.
COc1cc(C=O)ccc1OC(=O)COC(=O)Cc1ccccc1Nc1c(Cl)cccc1Cl showed a logD [13] of 4.86.
In the case of CC(=O)OCC1=C(C(=O)OCOC(=O)C(C)(C)C)N2C(=O)C(NC(=O)CSc3ccncc3)C2SC1 (configuration not stated), the logD ([14]; pH 4.6) is reported as 1.63.
Work on O=C(N1CCN(C(c2ccccc2)c2ccccc2)CC1)n1nnc2ccccc21 yielded a logD [15] of 3.61.
For CCCOc1ccc(C(=O)C2c3cccc(O)c3C(=O)c3c(O)cccc32)cc1, the logP [2] was 3.44.
In the case of CC1=C(CC(=O)O)c2cc(F)ccc2/C1=C/c1ccc(S(C)(=O)=O)cc1, the logP [7] is reported as 3.29.
Work on CCN(CC)C(=O)C(C#N)=Cc1cc(OC(=O)NC(C)(C)C)c(O)c([N+](=O)[O-])c1 yielded a logD [16] of 1.8.
CCCC(=O)OC(CNC(C)C)COc1cccc2ccccc12 (configuration not stated) gave a logP [17] of 5.56.
In the case of OCC1OC(Oc2c(I)cc(I)c(OC3OC(CO)C(O)C(O)C3O)c2I)C(O)C(O)C1O (configuration not stated), the logP [4] is reported as -0.74.
CCC(=O)OC1C(C)OC(OC2C(C)OC(OC3C(CC=O)CC(C)C(O)/C=C/C=C/CC(C)OC(=O)CC(OC(C)=O)C3OC)C(O)C2N(C)C)CC1(C)O (configuration not stated) gave a logP [8] of 1.38.
Work on O=C1C(CCS(=O)(=O)c2ccccc2)C(=O)N(c2ccccc2)N1c1ccccc1 yielded a logP [7] of 3.51.
With CCCCCCCCCCCCCCCCCc1cc(O)cc(O)c1 the logP [10] was 9.2.
With CC(C)Cc1ccc(C(C)C(=O)OCN2C(=O)c3ccccc3C2=O)cc1 (configuration not stated) the logD [18] was 5.36.
COc1cc(C=Cc2ccncc2)ccc1C=Cc1ccncc1 showed a logP [6] of 3.73.
CCCCCCCC(=O)OC(CNC(C)C)COc1cccc2ccccc12 (configuration not stated) gave a logP [17] of 7.87.
With CCOC(=O)OC(C)OC(=O)C1=CCSC2C(NC(=O)C(=NOC)c3csc(N)n3)C(=O)N12 (configuration not stated) the logD [19] was 0.96.
With CC(=O)Oc1ccccc1C(=O)OCN1C(=O)c2ccccc2C1=O the logD [18] was 3.23.
With Cc1ccc(N2C(=O)CSC2=Nn2c(C)nc3ccccc3c2=O)cc1 the logD [5] was -1.12.
CO[C@@H]1[C@@H](O[C@@H]2O[C@H](C)[C@@H](O[C@H]3C[C@@](C)(O)[C@@H](OC(=O)CC(C)C)[C@H](C)O3)[C@H](N(C)C)[C@H]2O)[C@@H](CC=O)C[C@@H](C)[C@@H](O)/C=C/C=C/C[C@@H](C)OC(=O)C[C@H]1O showed a logP [8] of 2.18.
For CC1=C(C(=O)Nc2nc3ccccc3s2)C(c2ccc(C(F)(F)F)cc2)NC(=S)N1 (configuration not stated), the logP [11] was 2.92.
For COc1ccc2cc(C(C)C(=O)OCC(COC(=O)C(C)c3ccc4cc(OC)ccc4c3)OC(=O)C(C)c3ccc4cc(OC)ccc4c3)ccc2c1 (configuration not stated), the logP [20] was 6.84.
O=C(N1CCC(C(c2ccc3c(c2)OCO3)c2ccc3c(c2)OCO3)CC1)n1cncn1 gave a logD [15] of 3.32.
With c1ccc2c(c1)COCCOCCOCc1ccccc1COCCOC2 the logP [21] was 2.21.
In the case of CO/N=C(/C(=O)NC1C(=O)N2C(C(=O)OCc3oc(=O)oc3C)=CCSC12)c1csc(N)n1 (configuration not stated), the logD [19] is reported as 0.17.
Compound CCN(CC)CC(=O)NC1c2ccccc2Oc2c(C)cccc21 (configuration not stated) has a logP of 3.73.
For CCc1ccc2c(c1)COCCOCCOCCOCCOCCOC2, the logP [21] was 0.98.
CCCCNC(=O)Oc1cc(/C=C(\C#N)C(=O)N(CC)CC)cc([N+](=O)[O-])c1O showed a logD [16] of 1.98.
With CCNC(=O)Oc1cc(/C=C(\C#N)C(=O)N(CC)CC)cc([N+](=O)[O-])c1O the logD [16] was 0.82.
Work on CCCCN(C)C(=O)Cc1c(-c2ccccc2)nc2c(Cl)cc(Cl)cn12 yielded a logD [3] of 2.14.
For O=C(OC(C(F)(F)F)C(F)(F)F)N1CCN(Cc2cccc(Oc3ccccc3)c2)CC1, the logD [15] was 5.
For C(=Cc1ccccn1)c1ccc(C=Cc2ccccn2)cc1, the logP [6] was 3.75.
In the case of CC(C)(C)C(=O)OCOC(=O)C1=C(CSc2nncs2)CSC2C(NC(=O)Cn3cnnn3)C(=O)N12 (configuration not stated), the logD ([14]; pH 4.6) is reported as 1.45.
CC1=C(C(=O)Nc2nc3ccccc3s2)C(c2ccc(N(C)C)cc2)NC(=S)N1 (configuration not stated) gave a logP [11] of 2.22.
For O=C1NC(=O)C(c2ccccc2)(c2ccccc2)N1S(=O)(=O)c1ccc([N+](=O)[O-])cc1, the logP [12] was 4.04.
CCC(=O)OCC(c1cncn1C)C(CC)C(=O)OCC1CCCCC1 (configuration not stated) showed a logD [22] of 4.4.
In the case of CCCCCCCCCCCCCCCc1cc(O)cc(O)c1, the logP [10] is reported as 7.4.
In the case of COc1cccnc1CCCCNc1nc(=O)c(Cc2ccc(C)nc2)c[nH]1, the logP [1] is reported as 2.58.
Compound CCCCN(C)C(=O)Cc1c(-c2ccc(Cl)cc2)nc2c(Cl)cc(Cl)cn12 has a logD [3] of 2.2.
For Cc1nc2ccccc2c(=O)n1N=C1SCC(=O)N1c1ccc(F)cc1, the logD [5] was -1.36.
Compound COc1ccc2c(c1)c(CC(=O)OCN1C(=O)c3ccccc3C1=O)c(C)n2C(=O)c1ccc(Cl)cc1 has a logD [18] of 5.64.
Compound Nc1ccc(S(=O)(=O)N2C(=O)NC(=O)C2(c2ccccc2)c2ccccc2)cc1 has a logP [12] of 3.27.
With COc1ccc2cc(C(C)C(=O)OCC(O)CO)ccc2c1 (configuration not stated) the logP [20] was 2.65.
CCCCC(=O)OC(CNC(C)C)COc1cccc2ccccc12 (configuration not stated) showed a logP [17] of 6.3.
Work on CON=C(C(=O)NC1C(=O)N2C(C(=O)OCOC(=O)C(C)(C)C)=CCSC12)c1csc(N)n1 (configuration not stated) yielded a logD [19] of 1.57.
In the case of CCC(C(=O)OCC1CCCCC1)C(COC(=O)c1ccccc1)c1cncn1C (configuration not stated), the logD [22] is reported as 5.47.
For COc1ccc2cc(C(C)C(=O)OCC3COC(C)(C)O3)ccc2c1 (configuration not stated), the logP [20] was 4.23.
Work on Cc1nnc(SCC2=C(C(=O)OCOC(=O)C(C)(C)C)N3C(=O)C(NC(=O)Cn4cnnn4)C3SC2)s1 (configuration not stated) yielded a logD ([14]; pH 4.5) of 1.34.
In the case of CCC(C(=O)OCC1CCCCC1)C(COC(C)=O)c1cncn1C (configuration not stated), the logD [22] is reported as 3.86.
Work on CC(C)(C)c1ccc2c(c1)COCCOCCOCCOCCOCCOC2 yielded a logP [21] of 1.71.
